Read-outs that look alike come from different tables or passages of the source.
Columns and labels:
[1] = test system: MCF-10A (human breast epithelial cell); assay: cells
Description: HMLER (human mammary endothelial cancer cells), HMLER-shEcad (human mammary endothelial cancer stem cells), and MCF-10A (healthy human mammary endothelial) cells were maintained in Mammary Epithelial Cell Growth Medium (MEGM) with supplements and growth factors: bovine pituitary extract (BPE), hydrocortisone, human epidermal growth factor (hEGF), insulin, and gentamicin/amphotericin-B. HEK293T (human embryonic kidney cell), and U2OS (homo sapiens bone osteosarcoma) cells were maintained in Dulbecco's Modified Eagle's Medium (DMEM) with a final concentration of 10% fetal bovine serum. The cells were grown in T75 flask at 310 K in a humidified atmosphere containing 5% CO2.
The colourimetric MTT (3-(4,5-dimethylthiazol-2-yl)-2,5-diphenyltetrazolium bromide) assay was used to determine the toxicity of the anti-cancer peptides and conventional anti-cancer drugs. 5×10^3 cells were seeded in each well of a 96-well microplate. The cells were incubated overnight. Elevated concentrations of the compounds (0, 0.1, 0.2, 0.4, 0.8, 1.6, 3.1, 6.3, 12.5, 25, 50 and 100 μM) were added and incubated for 72 hr with a total volume 200 μL. The stock solutions of the compounds were prepared as 5 mM solutions in DMSO and diluted using media or in pure water. The final concentration of DMSO in each well was either 0.5% or 0% and this amount was present in the untreated control. After 72 hr, 20 μL of a 4 mg/mL solution of MTT in PBS was added to each well, and the plate was incubated for an additional 4 hr. The MEGM/MTT mixture was aspirated and 100 μL of DMSO was added to dissolve the resulting purple formazan crystals. The absorbance of the solutions in each well was read at 550 nm wavelength. Absorbance values were normalized to either DMSO-containing or non DMSO-containing control wells and plotted as concentration of test compound versus % cell viability. ICso values were interpolated from the resulting dose dependent curves.
The peptides were screened against several different human cell lines and their cytotoxicity were determined. Cell lines utilised include MCF-10A (human breast epithelial cell), HMLER (human breast cancer bulk cell), HMLER-shEcad (human breast cancer stem cell), HEK293T (human embryonic kidney cell), and U2OS (human bone osteosarcoma).

[2] = ANTS/DPX liposome leakage assay, POPC vesicles; type: biochemical; settings: 0.5 mM vesicles
Experimental: (§1) In brief, 0.5 mM POPC vesicles (grey) or POPC:POPG vesicles (ratio 3:1, black) were incubated with peptide concentrations of 0, 0.02, 0.04, 0.08, 0.16, 0.32, 0.64, 1.25, 2.5, 5, 10, and 20 μM in each A) hydrochloric acid-adjusted phosphate buffered saline (1X, pH 4.8) and B) phosphate buffered saline (1X, pH 7.4).
(§2) The lipids 1-palmitoyl-2-oleoyl-sn-glycero-3-phosphocholine (POPC), 1-palmitoyl-2-oleoyl-snglycero-3-phospho-(1′-rac-glycerol) (POPG) were purchased from Avanti Polar Lipids and dissolved in chloroform. Large unilamellar vesicles (LUVs) were produced by extrusion through 100 nm pore filter using an extruder and filters purchased from Avanti Polar Lipids.
(§3) 5 mM ANTS (8-aminonaphthalene-1,3,6-trisulfonic acid, disodium salt) and 12.5 mM DPX (p-xylene-bis-pyridinium bromide) were entrapped in 0.1 μm diameter extruded vesicles with lipids. Gel filtration chromatography using a Sephadex G-100 (GE Healthcare Life Sciences Inc) was used to remove external free ANTS/DPX from LUVs with entrapped contents. LUVs were diluted to 0.5 mM and used to measure the leakage activity by addition of aliquots of peptides. Leakage was measured after 3 h incubation. 10% Triton was used as the positive control to measure the maximum leakage of the vesicle. Fluorescence emission spectra were recorded using excitation and emission wavelength of 350 nm and 510 nm for ANTS/DPX using a BioTek Synergy H1 Hybrid Multi-Mode Reader.
(§4) Table 4 illustrates peptide concentration-induced 50 ANTS/DPX liposome leakage. 0.5 mM POPC and 3POPC/1POPG vesicles were fixed and incubated with titrated peptide concentration (0, 0.02, 0.04, 0.08, 0.16, 0.32, 0.64, 1.25, 2.5, 5, 10, and 20 μM) each in phosphate buffered saline (1X, pH 7.4) and hydrochloric acid-adjusted phosphate buffered saline (1X, pH 4.8). The values are shown as lipid per peptide. IN-terminus is free, C-terminus: —W—NH2.

[3] = Tryptophan fluorescent binding assay, 3POPC/1POPG vesicles; settings: 50 μM peptide, PBS pH 7.4
Experimental: (§5) In brief, 50 μM peptides were fixed and incubated with titrated POPC vesicles (black) or 3POPC/1POPG vesicles (grey) at concentrations of 0, 12.5, 25, 50, 100, 250, 500, 1000, 2500, and 5000 μM in phosphate buffered saline (1X, pH 7.4). The lipid concentration that causes 50% peptide binding was determined using a tryptophan fluorescent binding assay and the values are shown as lipid per peptide.
as §2
(§6) Peptides (50 μM) and POPC/POPG LUVs (600 μM) were prepared in 10 mM phosphate buffer (pH 7.0). The solutions were incubated and measured after 60 minutes. Excitation was fixed at 280 nm (slit 9 nm) and emission was collected from 300 to 450 nm (slit 9 nm). The spectra were recorded using a Synergy H1 Hybrid Multi-Mode Reader (FIG. 3A) and Cytation™ 5 Cell Imaging Multi-Mode Reader (FIG. 2) from BioTek and were averaged over 3 scans.
(§7) Table 3 illustrates the lipid concentration-induced 50% peptide binding onto a liposome. 50 μM peptide was fixed and incubated with titrated lipid (POPC vesicles or 3POPC/1POPG vesicles) at concentrations of 0, 12.5, 25, 50, 100, 250, 500, 1000, 2500, and 5000 μM in phosphate buffered saline (1X, pH 7.4). The lipid concentration that causes 50% peptide binding was determined using tryptophan fluorescent binding assay and the values are shown as lipid per peptide. IN-terminus is free, C-terminus: —W—NH2.

[4] = test system: U2OS (human bone osteosarcoma); assay: MTT cytotoxicity assay, U2OS; type: cell-based; settings: 72 hr
[5] = test system: HEK293T (human embryonic kidney cell); assay: MTT cytotoxicity assay, HEK293T; type: cell-based; settings: 72 hr, MTT; read-out: IC50 HEK293T
[6] = Tryptophan fluorescent binding assay, POPC vesicles; settings: 50 μM peptide, PBS pH 7.4
Experimental: as §5, §2, §6, §7

[7] = test system: HMLER (human breast cancer bulk cell); assay: MTT cytotoxicity assay, HMLER; type: cell-based; settings: 72 hr, MTT; read-out: IC50 HMLER
[8] = ANTS/DPX liposome leakage assay, 3POPC/1POPG vesicles; type: biochemical; settings: for Peptide Concentration-induced 50% ANTS/DPX leakage at pH 4.8 (L/P) 3POPC/1POPG Vesicle / Peptide Concentration-induced 50% ANTS/DPX leakage at pH 7.4 (L/P) 3POPC/1POPG Vesicle: 0.5 mM vesicles; for liposome leakage activity from anionic vesicle at pH 4.8: compared with zwitterionic vesicle
Experimental: as §1, §2, §3, §4

[9] = test system: HMLER-shEcad (human breast cancer stem cell); assay: MTT cytotoxicity assay, HMLER-shEcad; type: cell-based; settings: 72 hr, MTT; read-out: IC50 HMLER-shEcad

Compound | IC50 [1] [µM] | Peptide Concentration-induced 50% ANTS/DPX leakage at pH 4.8 (L/P) POPC Vesicle [2] [L/P] | Peptide Concentration-induced 50% ANTS/DPX leakage at pH 7.4 (L/P) POPC Vesicle [2] [L/P] | Lipid Concentration-induced 50% Peptide Binding (L/P) 3POPC/1POPG Vesicle [3] [L/P] | IC50 [4] [µM] | IC50 [5] [µM] | Lipid Concentration-induced 50% Peptide Binding (L/P) POPC Vesicle [6] [L/P] | IC50 [7] [µM] | Peptide Concentration-induced 50% ANTS/DPX leakage at pH 4.8 (L/P) 3POPC/1POPG Vesicle [8] [L/P] | Peptide Concentration-induced 50% ANTS/DPX leakage at pH 7.4 (L/P) 3POPC/1POPG Vesicle [8] [L/P] | IC50 [9] [µM] | liposome leakage activity from anionic vesicle at pH 4.8 [8] | IC50 ([1]; read-out: IC50 MCF-10A, 72 hr, MTT) [µM]
CC(C)C[C@H](NC(=O)CN)C(=O)N[C@@H](CC(C)C)C(=O)N[C@@H](CCC(=O)O)C(=O)N[C@@H](CC(C)C)C(=O)N[C@@H](CC(C)C)C(=O)N[C@@H](CCC(=O)O)C(=O)N[C@@H](CC(C)C)C(=O)N[C@@H](CC(C)C)C(=O)N[C@@H](CC(C)C)C(=O)N[C@@H](CCC(=O)O)C(=O)N[C@@H](C)C(=O)N[C@@H](C)C(=O)NCC(=O)N[C@@H](Cc1c[nH]c2ccccc12)C(N)=O [EEE] | ≥ 100 | 35 | 143 | 4.50 | 78.8 ± 5.3 | 50 | 1.33 | 6.25 ± 1.77 | 28 | 346 | 10.6 ± 3.46 | – | –
CC(C)C[C@H](NC(=O)CN)C(=O)N[C@@H](CC(C)C)C(=O)N[C@@H](CCC(=O)O)C(=O)N[C@@H](CC(C)C)C(=O)N[C@@H](CC(C)C)C(=O)N[C@@H](CCC(=O)O)C(=O)N[C@@H](CC(C)C)C(=O)N[C@@H](CC(C)C)C(=O)N[C@@H](CC(C)C)C(=O)N[C@@H](Cc1c[nH]cn1)C(=O)N[C@@H](C)C(=O)N[C@@H](C)C(=O)NCC(=O)N[C@@H](Cc1c[nH]c2ccccc12)C(N)=O [EEH] | ≥ 100 | 58 | 738 | 0.50 | 19.6 ± 3.96 | 12.9 ± 0.14 | 0.50 | 3.3 ± 0.14 | 168 | 755 | 3.6 ± 0.85 | relatively higher liposome leakage activity | –
CC(C)C[C@H](NC(=O)CN)C(=O)N[C@@H](CC(C)C)C(=O)N[C@@H](CCC(=O)O)C(=O)N[C@@H](CC(C)C)C(=O)N[C@@H](CC(C)C)C(=O)N[C@@H](Cc1c[nH]cn1)C(=O)N[C@@H](CC(C)C)C(=O)N[C@@H](CC(C)C)C(=O)N[C@@H](CC(C)C)C(=O)N[C@@H](CCC(=O)O)C(=O)N[C@@H](C)C(=O)N[C@@H](C)C(=O)NCC(=O)N[C@@H](Cc1c[nH]c2ccccc12)C(N)=O [EHE] | ≥ 100 | 75 | 952 | 0.44 | 18.2 ± 1.06 | 13 | 0.44 | 3.9 ± 0.28 | 384 | 706 | 2.55 ± 0.07 | relatively higher liposome leakage activity | –
CC(C)C[C@H](NC(=O)CN)C(=O)N[C@@H](CC(C)C)C(=O)N[C@@H](CCCCN)C(=O)N[C@@H](CC(C)C)C(=O)N[C@@H](CC(C)C)C(=O)N[C@@H](CCC(=O)O)C(=O)N[C@@H](CC(C)C)C(=O)N[C@@H](CC(C)C)C(=O)N[C@@H](CC(C)C)C(=O)N[C@@H](CCC(=O)O)C(=O)N[C@@H](C)C(=O)N[C@@H](C)C(=O)NCC(=O)N[C@@H](Cc1c[nH]c2ccccc12)C(N)=O [KEE] | ≥ 100 | 97 | 626 | 0.20 | 49.4 ± 13.3 | 11.1 ± 1.84 | 0.20 | 3.75 ± 0.78 | 108 | 657 | 2.05 ± 0.21 | – | –
GLLDLLELLLEAAG [DEE] | – | 110 | 644 | 0.38 | 61 ± 1.41 | 9.91 ± 0.44 | 0.63 | 5.55 ± 0.35 | 164 | 597 | 6.05 ± 2.76 | – | 8.4 ± 1.56
